Results taken from patent US20250230193A1, “CYCLIC COMPOUND HAVING SELECTIVE KRAS INHIBITORY EFFECT ON HRAS AND NRAS” (CHUGAI SEIYAKU KABUSHIKI KAISHA, priority 2022, published 2025).

Key:
[1] = molecular target: GDP-bound NRAS wild-type protein (Homo sapiens, UniProt P01111); test: Binding to NRAS by surface plasmon resonance (SPR), Single Cycle Kinetics; conditions: KD ratio, GDP-bound NRAS wild-type vs GDP-bound KRAS wild-type, SPR
[2] = molecular target: GDP-bound HRAS wild-type protein (Homo sapiens, UniProt P01112); test: Binding to HRAS by surface plasmon resonance (SPR), Single Cycle Kinetics; conditions: KD ratio, GDP-bound HRAS wild-type vs GDP-bound KRAS wild-type, SPR
GDP-bound HRAS wild-type protein, sequence (P01112 whole entry): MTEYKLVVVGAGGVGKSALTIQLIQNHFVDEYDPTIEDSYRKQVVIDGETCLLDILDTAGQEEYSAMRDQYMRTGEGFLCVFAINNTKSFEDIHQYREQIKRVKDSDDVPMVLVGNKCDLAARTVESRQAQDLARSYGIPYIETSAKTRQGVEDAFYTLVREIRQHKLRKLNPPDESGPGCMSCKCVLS

GDP-bound NRAS wild-type protein, sequence (P01111 whole entry): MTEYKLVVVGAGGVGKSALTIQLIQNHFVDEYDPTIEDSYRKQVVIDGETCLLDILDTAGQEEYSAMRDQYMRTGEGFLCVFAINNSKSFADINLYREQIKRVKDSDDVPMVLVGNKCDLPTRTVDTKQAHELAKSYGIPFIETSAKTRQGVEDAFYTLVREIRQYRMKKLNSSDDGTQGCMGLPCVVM

| SMILES | NRAS/KRAS (ratio of KD value with respect to NRAS to KD value with respect to KRAS) [1] | HRAS/KRAS (ratio of KD value with respect to HRAS to KD value with respect to KRAS) [2] |
| --- | --- | --- |
| CC[C@H](C)[C@@H]1NC(=O)[C@H](CC)N(C)C(=O)C[C@@H](C(=O)N(C)C)N(C)C(=O)[C@H](C2CCCC2)N(C)C(=O)C2(CCC2)NC(=O)[C@@H]2CC(F)(F)CN2C(=O)[C@H](CCc2cc(F)c(C(F)(F)F)c(F)c2)NC(=O)CN(C)C(=O)[C@H](Cc2ccc(C(F)(F)F)cc2)N2CC/C=C\C[C@@H](C2=O)N(C)C(=O)CN(C)C1=O [PP1129] | A (a compound having 10 or more and less than 20 is denoted as A) | B (a compound having 3 or more and less than 10 is denoted as B) |
| CC[C@H](C)[C@@H]1NC(=O)[C@H](CC)N(C)C(=O)C[C@@H](C(=O)N(C)C)N(C)C(=O)[C@H](C2CCCC2)N(C)C(=O)C2(CCC2)NC(=O)[C@@H]2C[C@@H](OC)CN2C(=O)[C@H](CCc2cc(F)c(C(F)(F)F)c(F)c2)NC(=O)CN(C)C(=O)[C@H](Cc2ccc(C(F)(F)F)cc2)N2CC/C=C\C[C@@H](C2=O)N(C)C(=O)CN(C)C1=O [PP1130] | A (a compound having 10 or more and less than 20 is denoted as A) | B (a compound having 3 or more and less than 10 is denoted as B) |
| CC[C@H](C)[C@@H]1NC(=O)[C@H](CC)N(C)C(=O)C[C@@H](C(=O)N(C)C)N(C)C(=O)[C@H](C2CCCC2)N(C)C(=O)C2(CCC2)NC(=O)[C@@H]2C[C@@H](F)CN2C(=O)[C@H](CCc2cc(F)c(C(F)(F)F)c(F)c2)NC(=O)CN(C)C(=O)[C@H](Cc2ccc(C(F)(F)F)cc2)N2CC/C=C\C[C@@H](C2=O)N(C)C(=O)CN(C)C1=O [PP1131] | A (a compound having 10 or more and less than 20 is denoted as A) | B (a compound having 3 or more and less than 10 is denoted as B) |
| CC[C@H](C)[C@@H]1NC(=O)[C@H](CC)N(C)C(=O)C[C@@H](C(=O)N(C)C)N(C)C(=O)[C@H](C2CCCC2)N(C)C(=O)C2(CCC2)NC(=O)[C@@H]2C[C@H](F)CN2C(=O)[C@H](CCc2cc(F)c(C(F)(F)F)c(F)c2)NC(=O)CN(C)C(=O)[C@H](Cc2ccc(C(F)(F)F)cc2)N2CC/C=C\C[C@@H](C2=O)N(C)C(=O)CN(C)C1=O [PP1132] | A (a compound having 10 or more and less than 20 is denoted as A) | B (a compound having 3 or more and less than 10 is denoted as B) |
| CC[C@H](C)[C@@H]1NC(=O)[C@H](CC)N(C)C(=O)C[C@@H](C(=O)N(C)C)N(C)C(=O)[C@H](C2CCCC2)N(C)C(=O)C2(CCC2)NC(=O)[C@@H]2C[C@@H](C(F)(F)F)CN2C(=O)[C@H](CCc2cc(F)c(C(F)(F)F)c(F)c2)NC(=O)CN(C)C(=O)[C@H](Cc2ccc(C(F)(F)F)cc2)N2CC/C=C\C[C@@H](C2=O)N(C)C(=O)CN(C)C1=O [PP1133] | A (a compound having 10 or more and less than 20 is denoted as A) | A (a compound having 10 or more and less than 20 is denoted as A) |
| CC[C@H](C)[C@@H]1NC(=O)[C@H](CC)N(C)C(=O)C[C@@H](C(=O)N(C)C)N(C)C(=O)[C@H](C2CCCC2)N(C)C(=O)C2(CCC2)NC(=O)[C@@H]2C[C@H](C)CN2C(=O)[C@H](CCc2cc(F)c(C(F)(F)F)c(F)c2)NC(=O)CN(C)C(=O)[C@H](Cc2ccc(C(F)(F)F)cc2)N2CC/C=C\C[C@@H](C2=O)N(C)C(=O)CN(C)C1=O [PP1134] | A (a compound having 10 or more and less than 20 is denoted as A) | B (a compound having 3 or more and less than 10 is denoted as B) |
| CC[C@H](C)[C@@H]1NC(=O)[C@H](CC)N(C)C(=O)C[C@@H](C(=O)N(C)C)N(C)C(=O)[C@H](C2CCCC2)N(C)C(=O)C2(CCC2)NC(=O)[C@@H]2CCCN2C(=O)[C@H](CCc2cc(F)c(C(F)(F)F)c(F)c2)NC(=O)CN(C)C(=O)[C@H](Cc2ccc(C(F)(F)F)cc2)N2CC/C=C\C[C@@H](C2=O)N(C)C(=O)CN(C)C1=O [PP1135] | A (a compound having 10 or more and less than 20 is denoted as A) | A (a compound having 10 or more and less than 20 is denoted as A) |
| CC[C@H](C)[C@@H]1NC(=O)[C@H](CC)N(C)C(=O)C[C@@H](C(=O)N(C)C)N(C)C(=O)[C@H](C2CCCC2)N(C)C(=O)C2(CCC2)NC(=O)[C@@H]2CCCCN2C(=O)[C@H](CCc2cc(F)c(C(F)(F)F)c(F)c2)NC(=O)CN(C)C(=O)[C@H](Cc2ccc(C(F)(F)F)cc2)N2CC/C=C\C[C@@H](C2=O)N(C)C(=O)CN(C)C1=O [PP1136] | A (a compound having 10 or more and less than 20 is denoted as A) | A (a compound having 10 or more and less than 20 is denoted as A) |
| CC[C@H](C)[C@@H]1NC(=O)[C@H](CC)N(C)C(=O)C[C@@H](C(=O)N(C)C)N(C)C(=O)[C@H](C2CCCC2)N(C)C(=O)C2(CCC2)NC(=O)[C@@H]2CSCCN2C(=O)[C@H](CCc2cc(F)c(C(F)(F)F)c(F)c2)NC(=O)CN(C)C(=O)[C@H](Cc2ccc(C(F)(F)F)cc2)N2CC/C=C\C[C@@H](C2=O)N(C)C(=O)CN(C)C1=O [PP1137] | AA (a compound having 20 or more is denoted as AA) | A (a compound having 10 or more and less than 20 is denoted as A) |
| CC[C@H](C)[C@@H]1NC(=O)[C@H](CC)N(C)C(=O)C[C@@H](C(=O)N(C)C)N(C)C(=O)[C@H](C2CCCC2)N(C)C(=O)C2(CCC2)NC(=O)[C@@H]2COCCN2C(=O)[C@H](CCc2cc(F)c(C(F)(F)F)c(F)c2)NC(=O)CN(C)C(=O)[C@H](Cc2ccc(C(F)(F)F)cc2)N2CC/C=C\C[C@@H](C2=O)N(C)C(=O)CN(C)C1=O [PP1138] | A (a compound having 10 or more and less than 20 is denoted as A) | A (a compound having 10 or more and less than 20 is denoted as A) |
| CC[C@H](C)[C@@H]1NC(=O)[C@H](CC)N(C)C(=O)C[C@@H](C(=O)N(C)C)N(C)C(=O)[C@H](C2CCCC2)N(C)C(=O)C2(CCC2)NC(=O)[C@@H]2CCN2C(=O)[C@H](CCc2cc(F)c(C(F)(F)F)c(F)c2)NC(=O)CN(C)C(=O)[C@H](Cc2ccc(C(F)(F)F)cc2)N2CC/C=C\C[C@@H](C2=O)N(C)C(=O)CN(C)C1=O [PP1139] | A (a compound having 10 or more and less than 20 is denoted as A) | A (a compound having 10 or more and less than 20 is denoted as A) |
| CC[C@H](C)[C@@H]1NC(=O)[C@H](CC)N(C)C(=O)C[C@@H](C(=O)N(C)C)N(C)C(=O)[C@H](C2CCCC2)N(C)C(=O)C2(CCC2)NC(=O)[C@H](C)NC(=O)[C@H](CCc2cc(F)c(C(F)(F)F)c(F)c2)NC(=O)CN(C)C(=O)[C@H](Cc2ccc(C(F)(F)F)cc2)N2CC/C=C\C[C@@H](C2=O)N(C)C(=O)CN(C)C1=O [PP1140] | A (a compound having 10 or more and less than 20 is denoted as A) | A (a compound having 10 or more and less than 20 is denoted as A) |
| CCCN1CC(=O)NC2(CCC2)C(=O)N(C)[C@@H](C2CCCC2)C(=O)N(C)[C@H](C(=O)N(C)C)CC(=O)N(C)[C@@H](CC)C(=O)N[C@@H]([C@@H](C)CC)C(=O)N(C)CC(=O)N(C)[C@H]2C/C=C\CCN(C2=O)[C@@H](Cc2ccc(C(F)(F)F)cc2)C(=O)N(C)CC(=O)N[C@@H](CCc2cc(F)c(C(F)(F)F)c(F)c2)C1=O [PP1141] | AA (a compound having 20 or more is denoted as AA) | A (a compound having 10 or more and less than 20 is denoted as A) |
| CCCCN1CC(=O)NC2(CCC2)C(=O)N(C)[C@@H](C2CCCC2)C(=O)N(C)[C@H](C(=O)N(C)C)CC(=O)N(C)[C@@H](CC)C(=O)N[C@@H]([C@@H](C)CC)C(=O)N(C)CC(=O)N(C)[C@H]2C/C=C\CCN(C2=O)[C@@H](Cc2ccc(C(F)(F)F)cc2)C(=O)N(C)CC(=O)N[C@@H](CCc2cc(F)c(C(F)(F)F)c(F)c2)C1=O [PP1142] | A (a compound having 10 or more and less than 20 is denoted as A) | A (a compound having 10 or more and less than 20 is denoted as A) |
| CC[C@H](C)[C@@H]1NC(=O)[C@H](CC)N(C)C(=O)C[C@@H](C(=O)N(C)C)N(C)C(=O)[C@H](C2CCCC2)N(C)C(=O)C2(CCC2)NC(=O)CN(CC)C(=O)[C@H](CCc2cc(F)c(C(F)(F)F)c(F)c2)NC(=O)CN(C)C(=O)[C@H](Cc2ccc(C(F)(F)F)cc2)N2CC/C=C\C[C@@H](C2=O)N(C)C(=O)CN(C)C1=O [PP1143] | A (a compound having 10 or more and less than 20 is denoted as A) | A (a compound having 10 or more and less than 20 is denoted as A) |
| CC[C@H](C)[C@@H]1NC(=O)[C@H](CC)N(C)C(=O)C[C@@H](C(=O)N(C)C)N(C)C(=O)[C@H](C2CCCC2)N(C)C(=O)C2(CCC2)NC(=O)[C@H](COC)N(C)C(=O)[C@H](CCc2cc(F)c(C(F)(F)F)c(F)c2)NC(=O)CN(C)C(=O)[C@H](Cc2ccc(C(F)(F)F)cc2)N2CC/C=C\C[C@@H](C2=O)N(C)C(=O)CN(C)C1=O [PP1145] | A (a compound having 10 or more and less than 20 is denoted as A) | B (a compound having 3 or more and less than 10 is denoted as B) |
